Experimental data: the supplement of paper PMC4314810
± gives the standard deviation of the averaged measurements.

The sequences below were run on MCF7 (assay: HRG-induced Akt activation (dPAkt = log2 pAkt/Akt HRG-stimulated minus log2 pAkt/Akt basal) (log2 ratio difference); higher = stronger HRG-induced Akt(T308) phosphorylation). Details: miRNA mimic concentration 10 nM; time after transfection 72 h; heregulin 10 ng/ml; stimulation time 1 h.
In short: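 MCF7 cells ([…], 96-well plates) were transfected with a library of 879 miRNA mimics at 10 nM final using Lipofectamine RNAiMax, in two biological replicates. After 72 h, cells were stimulated with 10 ng/ml heregulin-beta1 for 1 h or left unstimulated. They were fixed with 4% PFA, and phospho-Akt(T308) and total Akt were read by In-Cell Western on an Odyssey. Signals were corrected for column-wise fixation decay, and HRG-induced Akt activation is log2(pAkt/Akt) stimulated minus unstimulated, averaged over replicates.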
For GCCCUCCGCCCGUGCACCCCG, the “HRG-induced Akt activation (log2)” value was 1.17 ± 0.14. With UUAUAAAGCAAUGAGACUGAUU the “HRG-induced Akt activation (log2)” value was 1.5 ± 0.79. ACUUUAACAUGGAGGCACUUGC was tested, and the “HRG-induced Akt activation (log2)” value was 1.41 ± 0.029. For GCGACCCACUCUUGGUUUCCA, the “HRG-induced Akt activation (log2)” value was 1.8 ± 0.034. In the case of UAAUCUCAGCUGGCAACUGUGA, the “HRG-induced Akt activation (log2)” value is reported as 1.38 ± 0.37. For AAUGGAUUUUUGGAGCAGG, the “HRG-induced Akt activation (log2)” value was 2.12 ± 0.2. AAAACGGUGAGAUUUUGUUUU was tested, and the “HRG-induced Akt activation (log2)” value was 1.75 ± 0.2. UCUGGGCAACAAAGUGAGACCU was tested, and the “HRG-induced Akt activation (log2)” value was 0.753 ± 0.69. UCCAGUACCACGUGUCAGGGCCA was tested, and the “HRG-induced Akt activation (log2)” value was 0.976 ± 0.31. For CUAUACGGCCUCCUAGCUUUCC, the “HRG-induced Akt activation (log2)” value was 1.9 ± 0.13. In the case of AUUGAUCAUCGACACUUCGAACGCAAU, the “HRG-induced Akt activation (log2)” value is reported as 1.383 ± 0.0097. In the case of UGGAGUCCAGGAAUCUGCAUUUU, the “HRG-induced Akt activation (log2)” value is reported as 0.279 ± 0.71. GUUGUGUCAGUUUAUCAAAC was tested, and the “HRG-induced Akt activation (log2)” value was 1.54 ± 0.089. For CUCCUACAUAUUAGCAUUAACA, the “HRG-induced Akt activation (log2)” value was 1.12 ± 0.31. CUGAAGCUCAGAGGGCUCUGAU was tested, and the “HRG-induced Akt activation (log2)” value was 1.38 ± 0.13. With AAAGUGCUUCCCUUUGGACUGU the “HRG-induced Akt activation (log2)” value was 0.806 ± 0.049. UGGAGUGUGACAAUGGUGUUUG was tested, and the “HRG-induced Akt activation (log2)” value was 2.527 ± 0.012. For AGAGGAUACCCUUUGUAUGUU, the “HRG-induced Akt activation (log2)” value was 1.23 ± 0.53. With CUGGGAUCUCCGGGGUCUUGGUU the “HRG-induced Akt activation (log2)” value was 2 ± 0.076. UAAUGCCCCUAAAAAUCCUUAU was tested, and the “HRG-induced Akt activation (log2)” value was 0.932 ± 0.16. With AUGCACCUGGGCAAGGAUUCUG the “HRG-induced Akt activation (log2)” value was 1.77 ± 0.18. In the case of CUGAAGUGAUGUGUAACUGAUCAG, the “HRG-induced Akt activation (log2)” value is reported as 1.727 ± 0.0053. With CUUGGUUCAGGGAGGGUCCCCA the “HRG-induced Akt activation (log2)” value was 1.58 ± 0.43. With UUCACAGUGGCUAAGUUCUGC the “HRG-induced Akt activation (log2)” value was 1.73 ± 0.061. With AUCACAUUGCCAGGGAUUUCC the “HRG-induced Akt activation (log2)” value was 1.12 ± 0.24. In the case of UAAGGUGCAUCUAGUGCAGUUAG, the “HRG-induced Akt activation (log2)” value is reported as 2.1 ± 0.024. AAAACUGUAAUUACUUUUGUAC was tested, and the “HRG-induced Akt activation (log2)” value was 1.26 ± 0.31. GAGGGUCUUGGGAGGGAUGUGAC was tested, and the “HRG-induced Akt activation (log2)” value was 1.44 ± 0.081. CCAAAACUGCAGUUACUUUUGC was tested, and the “HRG-induced Akt activation (log2)” value was 1.39 ± 0.13. In the case of UCUCGCUGGGGCCUCCA, the “HRG-induced Akt activation (log2)” value is reported as 1.22 ± 0.36. For AUCAACAGACAUUAAUUGGGCGC, the “HRG-induced Akt activation (log2)” value was 2.3 ± 0.38. With UUCACCACCUUCUCCACCCAGC the “HRG-induced Akt activation (log2)” value was 1.57 ± 0.62. For UCUUCUCUGUUUUGGCCAUGUG, the “HRG-induced Akt activation (log2)” value was 1.27 ± 0.041. UACUCCAGAGGGCGUCACUCAUG was tested, and the “HRG-induced Akt activation (log2)” value was 1.02 ± 0.78. CAAAGAGGAAGGUCCCAUUAC was tested, and the “HRG-induced Akt activation (log2)” value was 2.01 ± 0.3. For CUCCAGAGGGAAGUACUUUCU, the “HRG-induced Akt activation (log2)” value was 2.02 ± 0.14. With AGAGGUAGUAGGUUGCAUAGUU the “HRG-induced Akt activation (log2)” value was 1.08 ± 0.21. UGUUUUGAUAACAGUAAUGU was tested, and the “HRG-induced Akt activation (log2)” value was 1.44 ± 0.064. UCAGGCCAGGCACAGUGGCUCA was tested, and the “HRG-induced Akt activation (log2)” value was 1.57 ± 0.41. With UGAUAUGUUUGAUAUAUUAGGU the “HRG-induced Akt activation (log2)” value was 1.52 ± 0.077. With CAUCUUCCAGUACAGUGUUGGA the “HRG-induced Akt activation (log2)” value was 1.73 ± 0.073. For GUUUGCACGGGUGGGCCUUGUCU, the “HRG-induced Akt activation (log2)” value was 1.88 ± 0.072. For CUACAAAGGGAAGCACUUUCUC, the “HRG-induced Akt activation (log2)” value was 1.96 ± 0.15. For UCAGCUGGCCCUCAUUUC, the “HRG-induced Akt activation (log2)” value was 1.12 ± 0.66. With UAGGUAGUUUCAUGUUGUUGGG the “HRG-induced Akt activation (log2)” value was 1.86 ± 0.1. For GAGUGCCUUCUUUUGGAGCGUU, the “HRG-induced Akt activation (log2)” value was 1.04 ± 0.043. For ACAGCAGGCACAGACAGGCAGU, the “HRG-induced Akt activation (log2)” value was 1.75 ± 0.28. AGCUGUCUGAAAAUGUCUU was tested, and the “HRG-induced Akt activation (log2)” value was 1.08 ± 0.3. For UUCACAGUGGCUAAGUUCCGC, the “HRG-induced Akt activation (log2)” value was 1.73 ± 0.22. In the case of ACCGUGCAAAGGUAGCAUA, the “HRG-induced Akt activation (log2)” value is reported as 1.89 ± 0.11. With AAUCAUGUGCAGUGCCAAUAUG the “HRG-induced Akt activation (log2)” value was 1.51 ± 0.15. For AGGAUGAGCAAAGAAAGUAGAUU, the “HRG-induced Akt activation (log2)” value was 1.13 ± 0.25. With CACGCUCAUGCACACACCCACA the “HRG-induced Akt activation (log2)” value was 1.68 ± 0.14. For AGGAAUGUUCCUUCUUUGCC, the “HRG-induced Akt activation (log2)” value was 1.91 ± 0.039. With AGUGAAUGAUGGGUUCUGACC the “HRG-induced Akt activation (log2)” value was 1.879 ± 0.002. UCACUCCUCUCCUCCCGUCUU was tested, and the “HRG-induced Akt activation (log2)” value was 1.4 ± 0.36. In the case of CGGGUCGGAGUUAGCUCAAGCGG, the “HRG-induced Akt activation (log2)” value is reported as 1.44 ± 0.098. With GCUGGUUUCAUAUGGUGGUUUAGA the “HRG-induced Akt activation (log2)” value was 1.82 ± 0.049. With GCGACCCAUACUUGGUUUCAG the “HRG-induced Akt activation (log2)” value was 1.44 ± 0.25. CUAUACGACCUGCUGCCUUUCU was tested, and the “HRG-induced Akt activation (log2)” value was 1.47 ± 0.14. In the case of UGAGAACUGAAUUCCAUAGGCU, the “HRG-induced Akt activation (log2)” value is reported as 2.34 ± 0.1. For CGAAUCAUUAUUUGCUGCUCUA, the “HRG-induced Akt activation (log2)” value was 1.44 ± 0.25. AACCAUCGACCGUUGAGUGGAC was tested, and the “HRG-induced Akt activation (log2)” value was 0.92 ± 0.14. For UGGGUUCCUGGCAUGCUGAUUU, the “HRG-induced Akt activation (log2)” value was 1.27 ± 0.13. For UCCGGUUCUCAGGGCUCCACC, the “HRG-induced Akt activation (log2)” value was 1.83 ± 0.26. In the case of UCAUAGCCCUGUACAAUGCUGCU, the “HRG-induced Akt activation (log2)” value is reported as 1.697 ± 0.0055. With UGUGCGCAGGGAGACCUCUCCC the “HRG-induced Akt activation (log2)” value was 0.835 ± 0.095. UCUCUGGAGGGAAGCACUUUCUG was tested, and the “HRG-induced Akt activation (log2)” value was 1.33 ± 0.18. With AAAAGUAAUUGUGGUUUUGGCC the “HRG-induced Akt activation (log2)” value was 1.15 ± 0.15.
